Data on six compounds can be found in patent US5747530A, “Aromatic dibenzofuran compounds and pharmaceutical/cosmetic compositions comprised thereof” (Centre International de Recherches Dermatologiques Galderma, priority 1994, dated 1998).

One assay has as its target T1, RAR γ (Homo sapiens, UniProt P13631).
T1 sequence (P13631 1-454): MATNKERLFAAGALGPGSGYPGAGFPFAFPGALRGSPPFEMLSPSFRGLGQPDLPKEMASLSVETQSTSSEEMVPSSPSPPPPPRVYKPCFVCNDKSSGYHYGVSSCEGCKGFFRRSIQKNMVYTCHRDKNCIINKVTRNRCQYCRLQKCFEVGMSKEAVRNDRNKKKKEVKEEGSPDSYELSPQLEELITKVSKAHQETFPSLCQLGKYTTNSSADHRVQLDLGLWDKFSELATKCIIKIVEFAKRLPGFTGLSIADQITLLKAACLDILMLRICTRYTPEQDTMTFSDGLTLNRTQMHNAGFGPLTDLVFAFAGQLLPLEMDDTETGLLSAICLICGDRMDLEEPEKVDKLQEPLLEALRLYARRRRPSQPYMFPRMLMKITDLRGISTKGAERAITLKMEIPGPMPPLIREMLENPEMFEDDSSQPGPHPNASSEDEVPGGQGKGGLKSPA
As to the kind of experiment: Affinity for RAR γ receptor (Kd). In kind it is binding. Particulars: read-out: Affinities for receptors Kd, RAR γ. Here is the method: (§1) Biological activities of certain compounds described and exemplified above:
(§2) ^(a) The affinites for the RARs were determined under the conditions
(§3) described in B. Martin et al, "Selective Synthetic Ligands for Human
(§4) Nuclear Retinoic Acid Receptors," Skin Pharmacol., 5, 57-65 (1992).

A further assay concerns the target T2, RAR β (Homo sapiens, UniProt P10826).
T2 sequence (P10826 1-448 isoform P10826-2): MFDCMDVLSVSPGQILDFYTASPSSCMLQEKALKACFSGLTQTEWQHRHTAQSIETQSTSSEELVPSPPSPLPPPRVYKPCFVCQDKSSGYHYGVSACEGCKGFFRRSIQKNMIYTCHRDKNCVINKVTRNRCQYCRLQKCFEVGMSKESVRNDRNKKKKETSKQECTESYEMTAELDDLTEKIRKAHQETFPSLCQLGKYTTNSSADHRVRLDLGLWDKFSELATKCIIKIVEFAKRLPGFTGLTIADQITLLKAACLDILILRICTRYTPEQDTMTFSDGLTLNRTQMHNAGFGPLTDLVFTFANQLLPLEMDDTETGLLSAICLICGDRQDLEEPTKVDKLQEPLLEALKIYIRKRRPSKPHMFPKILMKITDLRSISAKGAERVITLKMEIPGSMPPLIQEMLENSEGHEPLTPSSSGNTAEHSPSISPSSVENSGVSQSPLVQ
The assay is described as follows: Affinity for RAR β receptor (Kd). It counts as binding. The following applies: read-out: Affinities for receptors Kd, RAR β. The protocol: as §1, §2, §3, §4

The target of a further assay is T3, RAR α (Homo sapiens, UniProt P10276).
T3 sequence (P10276 1-462): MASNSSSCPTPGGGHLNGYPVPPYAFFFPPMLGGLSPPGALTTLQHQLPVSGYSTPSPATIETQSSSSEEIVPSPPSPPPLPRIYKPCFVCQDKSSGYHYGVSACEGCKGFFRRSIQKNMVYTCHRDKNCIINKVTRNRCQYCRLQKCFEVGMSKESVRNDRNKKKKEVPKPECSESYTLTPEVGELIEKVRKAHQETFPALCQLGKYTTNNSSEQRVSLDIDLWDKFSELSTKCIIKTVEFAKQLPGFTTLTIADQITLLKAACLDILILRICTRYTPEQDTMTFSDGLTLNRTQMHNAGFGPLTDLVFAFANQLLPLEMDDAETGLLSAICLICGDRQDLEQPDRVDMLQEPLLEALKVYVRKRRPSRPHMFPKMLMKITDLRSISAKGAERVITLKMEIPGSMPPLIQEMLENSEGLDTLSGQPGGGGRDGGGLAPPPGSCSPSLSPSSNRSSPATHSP
As to the kind of experiment: Affinity for RAR α receptor (Kd). It counts as binding. The following applies: read-out: Affinities for receptors Kd, RAR α. The protocol:
as §1, §2, §3, §4

For assay [1], the system named is F9 cells. As to the kind of experiment: Antagonist activity with respect to the differentiation of F9 cells. In kind it is cell-based. Particulars: Mus musculus; coincubation with reference agonist (F9 AC50 = 4nM). Here is the method:
Their activities may also be measured in tests of cellular transactivation using previously transfected recombinant RAR or RXR receptors (B. A. Bernard et al, Biochemical and Biophysical Research Communications, vol. 186, pp. 977-983 (1992)); M. F. Boehm et al, Journal of Medicinal Chemistry, p37, pp. 408-414 (1994)).
^(b) The antagonist activity was determined by coincubating a
[N(4-carboxybenzyl)-5,6,7,8-tetrahydro-5,5,8,8-tetramethyl-2-naphthylamin
(F9 AC50 = 4nM)] and different concentrations of the test retinoid.
These experiments were carried out under conditions for the determination
of activity with respect to the differentiation of F9 cells according to
the technique described in M. Darmon, M. Rocher, M. T. Cavey, B. Martin,
T. Rabilloud, C. Delescluse and B. Shroot, "Biological activity of
retinoids correlates with affinity for nuclear receptors, but not for
cytosolic binding protein," Skin Pharmacol., 1, 161-175 (1988).

Assay [2] relates to F9 cells. The assay is described as follows: Agonist activity, differentiation of F9 cells. Particulars: Mus musculus, reference agonist. It counts as cell-based.

A value given as a limit tells only on which side of the number the result lay.

As for `CC12CCC(C1)C1(C)Oc3ccc(C(=O)COc4ccc(C(=O)O)c(O)c4)cc3C21C` (stereo not drawn) [Example 15, 4-[2-(1,2,3,4-tetrahydro-1,4a,9b-trimethyl-1,4-methanodibenzofuran-8-yl)-2-oxoethoxy]-2-hydroxybenzoic acid], the dissociation constant (Kd) on RAR γ came out at 150 nM; on RAR β it was 114 nM; at RAR α, 2500 nM. The IC50 in the assay with F9 cells [1] stood at 55 nM.

As to `CC12CCC(C1)C1(C)Oc3ccc(C(=O)COc4ccc(C(=O)O)cc4)cc3C21C` (stereo not drawn) [Example 12, 4-[2-(1,2,3,4-tetrahydro-1,4a,9b-trimethyl-1,4-methanodibenzofuran-8-yl)-2-oxoethoxy]benzoic acid], the Kd amounted to 481 nM on RAR γ, 745 nM on RAR β and 3200 nM on RAR α. For the same compound, the 50% inhibitory concentration (IC50) in the assay on F9 cells [1] was found to be 40 nM.

For `CC12CCC(C1)C1(C)Oc3ccc(C(O)COc4ccc(C(=O)O)cc4)cc3C21C` (stereo not drawn) [Example 13, 4-[2-(1,2,3,4-tetrahydro-1,4a,9b-trimethyl-1,4-methanodibenzofuran-8-yl)-2-hydroxyethoxy]benzoic acid], the dissociation constant (Kd) at RAR γ was 40 nM; at RAR β, 230 nM; on RAR α it was over 3200 nM. Also, the 50% inhibitory concentration (IC50) in the assay with F9 cells [1] was determined as 36 nM.

As to `CC12CCC(C1)C1(C)Oc3ccc(CCOc4ccc(C(=O)O)c(O)c4)cc3C21C` (stereo not drawn) [Example 17, 4-[2-(1,2,3,4-tetrahydro-1,4a,9b-trimethyl-1,4-methanodibenzofuran-8-yl)ethoxy]-2-hydroxybenzoic acid], the dissociation constant Kd on RAR γ was 2250 nM; on RAR β, 315 nM; on RAR α, over 10000 nM. Also, in the assay with F9 cells [1], the IC50 was determined as 270 nM.

`CC12CCC(C1)C1(C)Oc3ccc(C(=O)/C=C/c4ccc(C(=O)O)cc4)cc3C21C` (single isomer, unassigned) [Example 23, 4-[(E)-3-(1,2,3,4-Tetrahydro-1,4a,9b-trimethyl-1,4-methanodibenzofuran-8-yl)-3-oxo-1-propenyl]benzoic acid]: the figures for the Kd at RAR γ, at RAR β and on RAR α were 27 nM, 53 nM and 220 nM, respectively. In the assay with F9 cells [1], the IC50 came out at 19 nM.

Regarding `CC1(C)CCC(C)(C)c2cc(NCc3ccc(C(=O)O)cc3)ccc21` [N(4-carboxybenzyl)-5,6,7,8-tetrahydro-5,5,8,8-tetramethyl-2-naphthylamin], half-maximal activity with F9 cells [2] (AC50) was put at 4 nM.

One may read the Kd as the free concentration of one partner at which half of the binding sites on the other are occupied at equilibrium, for simple one-to-one binding. As usually defined, the IC50 is the concentration at which inhibition is half-maximal. What is called AC50 is the concentration giving half of the maximal activity seen. A low value points to greater potency.
